Experimental data taken from patent publication US20260378560A1, “APPROACHES TO DESIGNING AND PERFORMING COMPRESSED BIOLOGICAL EXPERIMENTS AND SYSTEMS FOR IMPLEMENTING THE SAME” (EXVIVO LABS INC., priority 2023, published 2026).

Assays:
MOLT-4 [1] = assay: Cell viability (CellTiter Glo), compressed perturbation pools with informed pool design, MAX-based deconvolution, MOLT-4; settings: for DRS: MOLT-4, None (measured individually), informed pool design table; for DRS from MAX-based deconvolution: MOLT-4, Samples, 7 Pick 3 informed perturbation pools; for DRS, MOLT-4, MAX: compressed perturbation pools, informed pool design, MAX-based deconvolution;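 for DRS from MAX-based deconvolution: higher DRS means a larger drug effect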
Description: (§1) Total cell viability was measured for each sample using an ATP-based luminescence assay (i.e., CellTiter Glo). Each cancer drug was then screened at multiple concentrations ranging from one nM to ten μM in order to generate a dose-response curve and calculate a DRS for each cancer cell line.
(§2) Each cancer drug was cultured with target cells individually. At the end of the screen, samples were either analyzed individually or compressed into pools for analysis. The library was compressed alphabetically into ten cohorts, each of which contained seven cancer drugs present in three out of the seven pools, as shown in Table VII. Said another way, the screening platform 210 generated a “7 pick 3” compressed library by assigning the cancer drugs among different pools. […] The library was also compressed into ten cohorts with pools designed based on information known about each cancer drug, as shown in Table VIII. After cell viability measurement and DRS calculation, the DRS of each cancer drug in the samples generated based on the pools were deconvoluted and compared to the DRS for each cancer drug measured individually.
(§3) In parallel to the exemplary sample compression screen covered in Table VII, perturbations were compressed into pools and then screened. The pools were designed using drug class as a feature with two compression rules (or simply “rules”). The first rule required that drugs from the same class be separated into different cohorts (i.e., mutually exclusive groups of pools). […] A benefit of compressing perturbations is the ability to measure additive, antagonistic, and synergistic effects between drugs in the same pool. However, these effects can negatively impact deconvolution of individual drug effects. Therefore, combinations of drugs for which evidence of clinical toxicity exists can be assigned to different pools in accordance with an informed pooling operation. As new preclinical or clinical evidence of toxic combinations becomes available, the rules implemented by the screening platform 210—and more specifically, its algorithm for compressing members of a library—can be updated accordingly.
(§4) In MAX-based deconvolution, an assumption of neutrality between the compressed perturbations is made. In other words, the perturbation with the largest effect is assumed to be masking the effects, if any, of the other perturbations in the pool. For SUM- and MAX-based deconvolution, qualitative deconvolution is first performed to rank the perturbations in each pool based on size of expected effect. Qualitative deconvolution, as described above, ranks the perturbations in a pool from largest effect size to smallest effect size. The ranking is based on the overlap of each perturbation's unique subset of pools with the highest and lowest measured pools. The perturbation with the largest effect is expected to be present in the pools with the highest measured signal or corresponding metric (e.g., DRS), while the perturbation with the smallest effect is expected to be present in the pools with the lowest measured signal or corresponding metric (e.g., DRS).
(§5) For MAX-based deconvolution, the highest ranked perturbation in the rank order is first assigned an effect size based on the pool with the lowest measured signal or corresponding metric (e.g., DRS) that it is present in. Said another way, the screening platform 210 can identify the highest ranked perturbation in the rank order and then assign an effect size based on the measured signal or corresponding metric (e.g., DRS) of the “weakest” pool in which the highest ranked perturbation is included. The screening platform 210 can repeat this step for the next highest ranked perturbation, and so on until the measurements for each pool have been assigned to one of the perturbations. The effects for the remaining perturbations can be assigned a value of zero, since it is assumed that their effect is masked by the perturbation with the largest effect in each pool.

REH [2] = assay: Cell viability (CellTiter Glo), compressed perturbation pools with informed pool design, SUM-based deconvolution, REH; parameters: scale not given here
Description: as §1, §2
(§6) In parallel to the exemplary sample compression screen covered in Table VII, perturbations were compressed into pools and then screened. The pools were designed using drug class as a feature with two compression rules (or simply “rules”). The first rule required that drugs from the same class be separated into different cohorts (i.e., mutually exclusive groups of pools). The second rule separated PI3K pathway inhibitors from MAPK pathway inhibitors, as inhibiting these pathways in parallel is known to be synergistic but has not been clinically effective due to dose-limiting toxicities. A benefit of compressing perturbations is the ability to measure additive, antagonistic, and synergistic effects between drugs in the same pool. However, these effects can negatively impact deconvolution of individual drug effects. Therefore, combinations of drugs for which evidence of clinical toxicity exists can be assigned to different pools in accordance with an informed pooling operation. As new preclinical or clinical evidence of toxic combinations becomes available, the rules implemented by the screening platform 210—and more specifically, its algorithm for compressing members of a library—can be updated accordingly.
(§7) In SUM-based deconvolution, an assumption of additivity is used to quantify the individual effects of each perturbation on each target. Additivity implies that each perturbation effect on each target is positively contributing to the overall effect measured for that pool. This is an accurate assumption for certain experiments, such as when targets or samples are compressed. When targets are pooled—or when samples containing different targets are pooled—the effect of each perturbation on each individual target is diluted. In other words, each perturbation has an isolated effect on a target in culture, and the sum total of the isolated effects are measured when pooled. Therefore, SUM-based deconvolution breaks down the sum total measured for a pool and assigns estimated fractional effects to each compressed perturbation or target in the pool. The screening platform 210 used SUM-based deconvolution for all target and sample compression experiments described above.
(§8) As mentioned above, SUM-based deconvolution uses the overlapping pool design to identify relative relationships and ranges for the individual effects of each perturbation. When the overlapping pool design is not sufficient to solve for the polynomials representing perturbation effects, an anchor perturbation can be identified by the screening platform 210 based on rank order and assigned an effect size of zero. The anchor perturbation may be the lowest ranked perturbation in the rank order. This then enables the screening platform 210 to solve for the polynomials for the remaining perturbations.

MOLT-4 [3] = assay: Cell viability (CellTiter Glo), compressed perturbation pools with informed pool design, SUM-based deconvolution, MOLT-4; parameters: scale not given here
Description: as §1, §2, §6, §7, §8

REH [4] = assay: Cell viability (CellTiter Glo), library of cancer drugs, individual or sample compression with randomized (alphabetical) pools, REH; format: cell-based; settings: REH; for DRS: None (measured individually); for DRS from deconvolution: Samples, 7 Pick 3 randomized (alphabetical) sample pools
Description: as §1, §2, §7

MOLT-4 [5] = assay: Cell viability (CellTiter Glo), library of cancer drugs, individual or sample compression with randomized (alphabetical) pools, MOLT-4; format: cell-based; settings: for DRS: MOLT-4, None (measured individually); for DRS from deconvolution: MOLT-4, Samples, 7 Pick 3 randomized (alphabetical) sample pools
Description: as §1, §2, §7

REH [6] = assay: Cell viability (CellTiter Glo), compressed perturbation pools with informed pool design, MAX-based deconvolution, REH; settings: REH; for DRS: None (measured individually), informed pool design table; for DRS from MAX-based deconvolution: Samples, 7 Pick 3 informed perturbation pools; for DRS, REH, MAX: compressed perturbation pools, informed pool design, MAX-based deconvolution;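 for DRS from MAX-based deconvolution: higher DRS means a larger drug effect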
Description: as §1, §2, §3, §4, §5

SMILES | DRS (MOLT-4 [1]) | DRS from MAX-based deconvolution (MOLT-4 [1]) | DRS, MOLT-4, MAX (MOLT-4 [1]) | DRS, REH, SUM (REH [2]) | DRS, MOLT-4, SUM (MOLT-4 [3]) | DRS (REH [4]) | DRS from deconvolution (REH [4]) | DRS (MOLT-4 [5]) | DRS from deconvolution (MOLT-4 [5]) | DRS (REH [6]) | DRS from MAX-based deconvolution (REH [6]) | DRS, REH, MAX (REH [6]) | top hit of cohort (deconvoluted effect size) (MOLT-4 [1]; MOLT, informed perturbation pools) | top hit of cohort (deconvoluted effect size) (REH [6]; informed perturbation pools)
CCN1CCN(Cc2ccc(Nc3ncc(F)c(-c4cc(F)c5nc(C)n(C(C)C)c5c4)n3)nc2)CC1 [Abemaciclib] | 15.70 | 17.03 | 0.00 | 2.69 | 1.08 | 2.40 | 2.57 | 0.50 | 0.55 | 13.34 | 15.14 | 0.00 | – | –
Cc1nc(NC(=O)N2CCC[C@H]2C(N)=O)sc1-c1ccnc(C(C)(C)C(F)(F)F)c1 [Alpelisib] | 0.01 | 0.00 | 0.00 | 1.12 | 0.00 | 0.79 | 0.75 | 1.79 | 1.94 | 0.21 | 0.35 | 3.57 | – | –
CNC(=O)c1ccc(N2C(=S)N(c3cnc(C#N)c(C(F)(F)F)c3)C(=O)C23CCC3)cc1F [Apalutamide] | 0.00 | 0.00 | 4.94 | 0.73 | 1.88 | 0.38 | 0.35 | 0.38 | 0.33 | 0.00 | 0.00 | 0.73 | – | –
O=C(/C=C/c1cccc(S(=O)(=O)Nc2ccccc2)c1)NO [Belinostat] | 13.42 | 15.55 | 21.41 | 18.09 | 14.77 | 16.20 | 15.81 | 18.70 | 12.21 | 12.12 | 14.23 | 18.94 | – | –
CC(C)C[C@H](NC(=O)[C@H](Cc1ccccc1)NC(=O)c1cnccn1)B(O)O [Bortezomib] | 2.50 | 2.76 | 28.24 | 22.86 | 23.95 | 27.70 | 28.16 | 25.00 | 25.41 | 2.40 | 2.90 | 31.61 | top hit | top hit
CCN(CC)CCNC(=O)c1c(C)[nH]c(/C=C2\C(=O)Nc3ccc(F)cc32)c1C [Sunitinib] | 2.60 | 0.00 | – | – | – | 0.06 | 0.00 | 0.56 | 0.50 | 3.10 | 0.00 | – | – | –
CC/C(=C(\c1ccccc1)c1ccc(OCCN(C)C)cc1)c1ccccc1 [Tamoxifen] | 0.74 | 0.00 | – | – | – | 3.12 | 3.01 | 1.12 | 1.09 | 0.14 | 0.00 | – | – | –
C[C@@H]1CCN(C(=O)CC#N)C[C@@H]1N(C)c1ncnc2[nH]ccc12 [Tofacitinib] | 2.96 | 0.00 | – | – | – | 0.20 | 0.00 | 0.00 | 0.00 | 3.15 | 4.06 | – | – | –
CC(=O)Nc1cccc(-n2c(=O)n(C3CC3)c(=O)c3c(Nc4ccc(I)cc4F)n(C)c(=O)c(C)c32)c1 [Trametinib] | 24.71 | 24.91 | – | – | – | 0.00 | 0.00 | 0.00 | 0.00 | 21.81 | 23.72 | – | – | –
Cc1cc(Nc2ncnc3ccc(NC4=NC(C)(C)CO4)cc23)ccc1Oc1ccn2ncnc2c1 [Tucatinib] | 0.80 | 0.00 | – | – | – | 0.30 | 0.21 | 0.00 | 0.00 | 0.91 | 0.00 | – | – | –
Nc1cc(F)ccc1NC(=O)c1ccc(CNC(=O)/C=C/c2cccnc2)cc1 [Tucidinostat] | 0.50 | 0.00 | – | – | – | 10.87 | 11.23 | 6.77 | 7.95 | 2.40 | 0.00 | – | – | –
COc1cc2c(Nc3ccc(Br)cc3F)ncnc2cc1OCC1CCN(C)CC1 [Vandetanib] | 2.19 | 2.51 | – | – | – | 3.01 | 2.79 | 3.01 | 3.12 | 7.39 | 9.02 | – | – | –
CS(=O)(=O)c1ccc(C(=O)Nc2ccc(Cl)c(-c3ccccn3)c2)c(Cl)c1 [Vismodegib] | 4.08 | 4.35 | – | – | – | 0.00 | 0.00 | 0.70 | 0.56 | 2.58 | 3.06 | – | – | –
O=C(CCCCCCC(=O)Nc1ccccc1)NO [Vorinostat] | 1.84 | 0.00 | – | – | – | 12.12 | 12.11 | 13.42 | 13.67 | 2.01 | 0.00 | – | – | –
